What was measured:
SUCNR1 [1] = molecular target: T1, SUCNR1 (Mus musculus, UniProt Q99MT6); assay: Ligature plus F. nucleatum induced periodontitis in mice, topical 7a gel formulation (FIG. 11); format: in vivo
T1 construct: endogenous in cells; host or cells: live mice; C57/B6 is stated for the periodontitis model, and no strain is stated for the LPS model
T1 sequence (Q99MT6 1-317): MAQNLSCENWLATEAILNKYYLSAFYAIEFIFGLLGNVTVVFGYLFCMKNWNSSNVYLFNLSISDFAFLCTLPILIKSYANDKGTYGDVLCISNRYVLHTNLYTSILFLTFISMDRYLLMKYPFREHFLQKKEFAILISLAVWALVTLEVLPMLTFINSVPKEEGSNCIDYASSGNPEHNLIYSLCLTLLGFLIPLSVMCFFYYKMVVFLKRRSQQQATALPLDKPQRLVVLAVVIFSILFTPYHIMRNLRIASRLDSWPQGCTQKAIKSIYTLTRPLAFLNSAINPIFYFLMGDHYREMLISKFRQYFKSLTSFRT
Experimental: FIG. 11. Targeting SUCNR1 suppressed periodontitis and neuroinflammation. A. Study design. Periodontitis was induced in 14-week-old mice with a 6-0 silk ligature (Roboz Surgical Instrument Co., MD, USA) around the maxillary right side second molar. The ligature were kept in place for 5 days before removal. Sterile swabs soaked in 100 μl of 2.5×10^9/ml F. nucleatum in PBS and inoculated into mice around the ligature affected gingival tissues for 30 seconds. Inoculations were performed twice a week for four weeks. Mice were randomly assigned to receive 3 μl vehicle or 7a gel formulation every other day by topical application. B. Representative μCT images; C. The distance between CEJ to alveolar bone crest. D. IL-1β mRNA levels in the gingivae around the ligature site. E. Serum IL-1β levels. *p<0.05, ** p<0.01, *** p<0.001).
A novel mechanism connecting chronic peripheral inflammation and neuroinflammation. […] Inflammation was induced in 14-week-old C57/B6 mice by placing a ligature on the 2nd maxillary molar for 5-days plus twice/week inoculations of a key periodontal pathogen Fusobacteria nucleatum (Fn) for 4-weeks (FIG. 1A). […] This local inflammation was accompanied with the induction of neuroinflammation evidenced by the activation of microglia (FIG. 1D) and increased IL1β levels in hippocampus, cortex and cerebellum (FIG. 1E-G).
Six in situ gel formulations (ISGs) were produced by varying polymer concentration, changing the hydrophobicity of the solvent system, and use of different plasticizers (such as PEG200). All these ISGs were analyzed by FT-IR/ATR and HPLC assay for drug-polymer compatibility. In vitro drug release experiments were performed to assess the profile of sustained release with controlled initial burst release. One gel formulation was chosen to treat periodontitis animals in-vivo at 1 μg/10 g body weight three times/week (FIG. 11).
To determine if succinate receptor 1 inhibitors could reduce inflammation, succinate receptor 1 inhibitors were administered to mice. In this study (FIG. 11), mice with periodontal disease were used because of the resulting neuroinflammation from the periodontal disease. Topical application of POC7a gel formulation was administered at 1 μg/10 g body weight three times/week.

SUCNR1 [2] = molecular target: T1, SUCNR1; assay: LPS-induced neuroinflammation in mice, oral gavage of 7a (FIG. 16); format: in vivo; conditions: LPS-treated mice
Experimental: FIG. 16. […] A. Experimental design and treatment regime. 12-week-old male mice were randomly divided into 3 groups to receive inflammation induction (LPS) and treatment (7a) at indicated timepoints. PBS was used as the control solution to LPS and 20% DMSO in PBS (vehicle) was used as the control solution to 7a. The RNA samples were collected in TRIZol and extracted after perfusion. TNFα and IL1β mRNA levels were measured by Realtime PCR using specific primers and normalized to β-actin. B. Cerebellum, C. Hippocampus and D. Cortex. (* p<0.05. ** p<0.005, *** p<0.0005, **** p<0.0001 One-way ANOVA with post-hoc Tukey test).
Targeting SUCNR1 with topical 7a application reduced periodontitis as well as the associated neuroinflammation in mice. […] Thus, mice were pretreated 7a or vehicle through oral gavage 30 minutes before giving LPS intraperitoneally to induce neuroinflammation. The administration of 7a at 8 hours and 16 hours was repeated after the first dose. The mouse blood samples were collected through cardiac puncture at 24 hours (FIG. 16A). Immediately afterward, PBS was used to perfuse the mice to minimize the impact of blood cells to the gene expression of the brain tissues. The brain tissue samples were collected and the cerebellum, hippocampus, and cortex were micro-dissected and processed for RNA extraction and gene expression analysis.
The 7a solution was prepared as follows. 100 mM 7a stock solution was prepared using DMSO. Then the 7a stock solution was further diluted with PBS to become 20 mM 7a working solution and used for oral gavage to mice. DMSO in PBS (at 20% v/v) was used as vehicle. Based on the animals' body weight, 25 gram mice will receive 100 μL gavage volume) 7a working solution or vehicle. The treatment dose of 7a is 80 μmol/kg.

[3] = mice; succinate IP daily (4 mM/kg) for 4 weeks vs PBS
Experimental: FIG. 3. […] Mice received daily intraperitoneal (IP) injection with PBS or Succinate (4 mM/kg) for 4 weeks before sample collection. […] B. Alpha Diversity measured by the Observed number of ASVs, and Phylogenetic diversity index for oral swab samples. C. […] D. Network plot generated in Cytoscape 3.8.2. The small gray dots represent ASVs, the white circles represent WT samples, the yellow triangles represent WT_Suc samples. Edges represent the interaction of sample and ASV are colored based on sample type.

Fusobacterium nucleatum = system: Fusobacterium nucleatum
Experimental: FIG. 5. Fusobacterium nucleatum growth and virulence gene expression. A. F. nucleatum growth in media supplemented with indicated succinate concentrations shown as optical density measures over time (n=3, SEM). Different letters indicate statistically different from one another (ANOVA, p<0.05 by post-hoc Tukey's). B Relative expressions of virulence genes of F. nuleactum in 100 uM of succinate as determine by RT-PCR. (mean±SEM. ** p<0.01, * p<0.05).

[4] = mice with periodontitis, topical gel
[5] = 7a oral gavage 80 μmol/kg, 3 doses, mRNA at 24 hours

Structure (SMILES) | IL1β levels in cerebellum tissues (SUCNR1 [1]; [4]) | IL1β levels in hippocampal tissues (SUCNR1 [1]; [4]) | systemic IL1β levels in the serum (SUCNR1 [1]; [4]) | local IL1β levels in the gingiva (SUCNR1 [1]; mice with periodontitis, topical gel, mRNA around the ligature site) | periodontitis (μCT, distance between CEJ to alveolar bone crest) (SUCNR1 [1]; mice, ligature + F. nucleatum, oral topical gel formulation every other day) | IL1β expression in the cerebellum (SUCNR1 [2]; [5]) | IL1β expression in the hippocampus (SUCNR1 [2]; [5]) | TNFα expression in the cerebellum (SUCNR1 [2]; [5]) | TNFα expression in the cortex (SUCNR1 [2]; [5]) | TNFα expression in the hippocampus (SUCNR1 [2]; [5]) | neuroinflammation (SUCNR1 [2]; oral gavage) | dysbiosis in the oral microbiota (alpha and beta diversity) [3] | serum IL-1β levels [3] | expression of virulence factors (Hemin receptor, Hemolysin, Hemolysin-related protein, Lys R Family transcriptional regulator) (Fusobacterium nucleatum; 100 uM of succinate, RT-PCR) | F. nucleatum growth (optical density) (Fusobacterium nucleatum; media supplemented with succinate)
CNC(=O)Cc1ccc(-c2ccc3cccnc3n2)cc1 [7a] | significant reduction | significant reduction | reduced | reduced | inhibited periodontitis | less induction | less induction | less induction | reduced | less induction | reduced neuroinflammation |  |  |  | 
O=C(O)CCC(=O)O [succinate] |  |  |  |  |  |  |  |  |  |  |  | increased | increased | elevated | elevated

Source: US20230293504A1, “TARGETING SUCNR1 TO REDUCE NEUROINFLAMMATION” (New York University, priority 2022, published 2023)
